The subject of the experiment is BC-1 cells. In words: MTT assay, deletion and mutant peptides. It counts as cell-based, human. The source says: Fig. 2 Viral and cellular responses to K-Rta peptide; identification of VGN50. a Protein sequence alignment. Homologous protein sequences were searched for with BLAST and extracted from other gamma-herpesviral homologs. The consensus protein sequence is depicted at the bottom of table. b Peptide design. Deletion peptides were designed based on the consensus sequence in a. The TAT protein sequence was used as a cell-penetrating peptide (CPP) and placed downstream from the K-Rta protein sequence. (d-R) D amino acid arginine, (ORN) ornithine, (bAla) beta alanine. c Sub cellular peptide localization. Cy5-labeled peptide 1 was used to track subcellular localization. Nuclei were visualized by DAPI staining. The scale is indicated in the panel. d MTT assays with deletion and mutant peptides. Peptide listed in b were incubated with BC-1 cells and MTT conversion was measured 48 h after incubation. The OD of mock-treated samples were set as 100%, and OD from detergent-treated cells were set as 0%. The amount of each peptide used for incubation is depicted along the x-axis. Mean percentage viability ±SD were calculated for each treatment group (n = 3 samples). Peptide 1 was renamed as VGN50. e Flow cytometry analyses of cell proliferation and apoptosis induction. Cells were incubated with VGN50 or mutant peptide (three alanine substitutions) for 24 h followed by measurements of percentage cell proliferation (Ki67 staining) and apoptosis induction (Annexin V staining). Standard deviation bars are included. (n = 3) Two-way Anova, followed by Sidak’s multiple comparisons test. f The effect of VGN50 on various cancer cell types. MTT assays were performed with the indicated cell lines treated with various VGN50 concentrations. The OD of mock-treated samples were set as 100%, and OD from detergent-treated cells were set as 0%. Mean percentage viability ±SD was calculated for each treatment (n = 3 samples/treatment). g Viability assay with flow cytometry. Cell viability was measured in triplicate with live/dead staining and the cell killing effects on cancer cells was compared with normal peripheral blood mononuclear cells (PBMC) from three healthy donors. Results are presented as mean percentage viability ±SD (n = 3 samples/group). f, g Ordinary one-way Anova, followed by Tukey’s multiple comparisons test. […]
Leukoreduction system chambers (LRS) from healthy donors were purchased from Vitalant. […] Cell death, apoptosis, and proliferation were analyzed by flow cytometry (BD Acuri) after intracellular staining with anti-humanKi67-Alexa488 (Biolegend, 1:100) along with the isotype control antibody, annexin-V-FITC with 7-AAD staining (Biolegend) according to the manufacture’s protocol, Live/dead Fixable Red Dead Cell staining kit (Invitrogen) according to the manufacture’s protocol, or MTT assay. […]

As for `CC[C@H](C)[C@H](NC(=O)[C@H](CO)NC(=O)[C@H](CO)NC(=O)[C@H](CC(C)C)NC(=O)[C@H](CC(C)C)NC(=O)[C@H](C)NC(=O)[C@H](CC(=O)O)NC(=O)CCNC(=O)[C@H](CCCNC(=N)N)NC(=O)[C@H](CCCNC(=N)N)NC(=O)[C@H](CCCNC(=N)N)NC(=O)[C@H](CCCN)NC(=O)[C@H](CCCNC(=N)N)NC(=O)[C@H](CCCNC(=N)N)NC(=O)[C@H](CCCCN)NC(=O)[C@H](CCCCN)NC(=O)[C@H](N)CCCNC(=N)N)C(=O)N[C@@H](CC(C)C)C(=O)N[C@@H](CCC(N)=O)C(=O)NCC(=O)N[C@@H](CC(C)C)C(=O)N[C@@H](Cc1ccc(O)cc1)C(=O)N[C@@H](CCC(N)=O)C(=O)N[C@@H](CC(C)C)C(=O)N[C@@H](CC(=O)O)C(=O)N[C@H](C(=O)O)[C@@H](C)O` [Pep 3], the “Reduction of cell viability (MTT) compared to untreated control” value (BC-1, 16 µM) worked out at 90%.
As for `CC[C@H](C)[C@H](NC(=O)[C@H](CO)NC(=O)[C@H](CO)NC(=O)CCNC(=O)[C@H](CCCNC(=N)N)NC(=O)[C@H](CCCNC(=N)N)NC(=O)[C@H](CCCNC(=N)N)NC(=O)[C@H](CCCN)NC(=O)[C@H](CCCNC(=N)N)NC(=O)[C@H](CCCNC(=N)N)NC(=O)[C@H](CCCCN)NC(=O)[C@H](CCCCN)NC(=O)[C@H](N)CCCNC(=N)N)C(=O)N[C@@H](CC(C)C)C(=O)N[C@@H](CCC(N)=O)C(=O)NCC(=O)N[C@@H](CC(C)C)C(=O)N[C@@H](Cc1ccc(O)cc1)C(=O)N[C@@H](CCC(N)=O)C(=O)N[C@@H](CC(C)C)C(=O)N[C@@H](CC(=O)O)C(=O)N[C@H](C(=O)O)[C@@H](C)O` [Pep 2], the “Reduction of cell viability (MTT) compared to untreated control” value (BC-1, 64 μM) was found to be 20%.
Take `CC[C@H](C)[C@H](NC(=O)[C@H](CO)NC(=O)[C@H](CO)NC(=O)[C@H](CC(C)C)NC(=O)[C@H](CC(C)C)NC(=O)[C@H](C)NC(=O)[C@H](CC(=O)O)NC(=O)[C@H](CC(=O)O)NC(=O)CCNC(=O)[C@H](CCCNC(=N)N)NC(=O)[C@H](CCCNC(=N)N)NC(=O)[C@H](CCCNC(=N)N)NC(=O)[C@H](CCCN)NC(=O)[C@H](CCCNC(=N)N)NC(=O)[C@H](CCCNC(=N)N)NC(=O)[C@H](CCCCN)NC(=O)[C@H](CCCCN)NC(=O)[C@H](N)CCCNC(=N)N)C(=O)N[C@@H](CC(C)C)C(=O)N[C@@H](CCC(N)=O)C(=O)NCC(=O)N[C@@H](CC(C)C)C(=O)N[C@@H](Cc1ccc(O)cc1)C(=O)O` [Pep 4]: the “Fold less effective compared to Pep 1 and 3 (MTT)” value (BC-1) was ~ 4 fold.

The values are drawn from publication PMC8639922, “KSHV transactivator-derived small peptide traps coactivators to attenuate MYC and inhibits leukemia and lymphoma cell growth” (Communications Biology, 2021).
